The nature of data set [1]: Octanol/water partition coefficient, shake-flask method. It counts as physicochemical. The note with it: n-octanol/water, UV-vis. On the procedure: The partition coefficients in octanol/water (log Po/w) were measured using the shake-flask method, by calculating the equilibrium concentrations through UV spectra (Table 1).
Partition coefficients for the platinum complexes were determined in triplicate in an n-octanol/water system, with different ratios (1:1, 1:2, 2:1). Each complex was dissolved in n-octanol at the concentrations 16.7, 12.5, or 10 μM and subsequently, an appropriate volume of water was added. The mixtures were shaken mechanically for 1 h to ensure the distribution between the two solvent phases. The samples were then centrifuged (13,000 rpm, 10 min). Afterwards, the platinum concentration was determined in the octanol phases by UV–vis spectrophotometry, after collecting a calibration line for each complex. Results are expressed as the logarithm of the partition coefficient of octanol/water (log Po/w), which is the logarithm of the concentration of platinum in the n-octanol divided by its concentration in the aqueous layer.

Data set [2] relates to immortalized human keratinocytes (HaCaT). Description: MTT cell viability assay, HaCaT. Format: cell-based. The note with it: 48 h incubation. An excerpt:
(§1) The immortalized human keratinocytes (HaCaT) were from Innoprot.
For orientation: Formazan colour is commonly taken as a measure of viable cells.

The test system of data set [3] is human epidermoid carcinoma cells (A431). Put plainly: MTT cell viability assay, A431. It counts as cell-based. The note with it: for IC50: 48 h incubation, MTT; for SI (selectivity index): ratio IC50 HaCaT / IC50 A431.
Text: as §1

In data set [4] the test system is immortalized murine fibroblasts (BALB/c-3T3). The note with it: read-out: IC50 BALB-c/3T3; 48 h incubation, MTT. On the procedure:
To evaluate their biological activity, the effects of the four complexes on cell viability were evaluated in eukaryotic cell models. For this purpose, experiments were performed on two cancer cell lines, i.e., human epidermoid carcinoma cells (A431) and murine fibroblast BALB/c-3T3 transformed with the SV40 virus (SVT2), and on two non-cancer cell lines, i.e., immortalized human keratinocytes (HaCaT) and immortalized murine fibroblasts (BALB/c-3T3). Cells were incubated with increasing concentrations of 1,Me-Me, 1,Oct-Me, 1,Me-Oct, and 1,Oct-Oct (from 0.1 to 50 μM). After 48 h of incubation, cytotoxicity was determined by MTT assay and cell survival was expressed as the percentage of viable cells in the presence of each complex compared with that of the untreated cells (Figure S19).
The immortalized human keratinocytes (HaCaT) were from Innoprot. Human The A431 epidermoid carcinoma, murine BALB/c-3T3, and SVT2 fibroblasts were from ATCC. Cells were cultured in Dulbecco’s modified Eagle’s medium (DMEM) (Sigma-Aldrich, St. Louis, MO, USA), supplemented with 10% foetal bovine serum (HyClone), 2 mM L-glutamine, and antibiotics, all from Sigma-Aldrich, under a 5% CO2-humidified atmosphere at 37 °C. To test the effects of the complexes on cell viability, cells were seeded at a density of 2.5 × 10^3 cells per well in 96-well plates. After 24 h, cells were incubated with increasing concentrations (from 0.1 to 50 μM) of the four complexes. After 48 h, cell viability was assessed by the MTT assay, as previously reported in [43]. Cell viability was expressed as the percentage of viable cells in the presence of the Pt complexes compared to the controls, represented by untreated cells and cells supplemented with identical volumes of DMSO. Each sample was tested in three independent analyses, each carried out in triplicate.

In data set [5] the test system is murine fibroblast BALB/c-3T3 transformed with the SV40 virus (SVT2). Put plainly: MTT cell viability assay, SVT2. Format: cell-based. Conditions: for IC50: 48 h incubation, MTT; for SI (selectivity index): ratio IC50 BALB-c/3T3 / IC50 SVT2.
Text: as §1

Data set [6] concerns A431 cells. Description: Cellular Pt uptake by ICP-MS, A431. It counts as cell-based, human. The note with it: A431, 2.3 μM (IC50), 48 h, mean ± S.E. On the procedure: (§2) In particular, SVT2 and A431 were incubated for 48 h with 1-Me,Me and 1-Oct,Me, using the IC50 value concentrations. At the end of incubation, uptake and cell death mechanisms were evaluated. […] Finally, apoptosis was investigated by Western blot analyses using specific antibodies against pro-caspases 9 and 3.
To study the uptake of the complexes, SVT2 and A431 were incubated for 48 h in the presence of 1-Me,Me and 1-Oct,Me, respectively, at their IC50 concentrations. At the end of incubation, Pt determination was performed by inductively coupled plasma mass spectrometry (ICP-MS, Aurora M90; Bruker, Ettlingen/Leipzig, Germany) in the “Normal Sensitivity” mode. Calibration curves for the quantification of Pt ranged from 0.1 to 100 μg/L and were constructed daily by the analysis of the standard solutions prepared immediately before analysis. All standards used for analysis were prepared in HNO3 solution (2%, v/v). The internal standards were ^89Y and ^115In in both the calibration curve and sample analyses. The linearity was acceptable with an R^2 value greater than 0.9996. The treatment of the cells involved a wet digestion: after centrifugation, cell samples were wet digested with 1 mL of ultrapure HNO3 (67–69%, v/v). The mixture was gently boiled over a water bath (90 °C) for 3 h until a clear solution was obtained. […]

The test system of data set [7] is A431 cells. Description: Western blot of pro-caspases 9 and 3, A431. The note with it: A431, 2.3 μM, 48 h. It counts as cell-based, human. As for the experimental part: as §2
The SVT2 were seeded on six-well plates at a density of 2.5 × 10^5 cells/well, whereas A431 was seeded at a density of 3 × 10^5 cells/well. After 24 h, cells were treated with 9.8 μM of 1-Me,Me or 2.3 μM 1-Oct,Me. After 48 h of incubation, Western blot analyses were performed by using pro-caspase 9 (Cell Signaling Technology, Danvers, MA, USA) and pro-caspase 3 (Abcam, Cambridge, MA, USA) antibodies, as reported by Del Giudice et al. Protein intensity levels were normalized using β-actin (Sigma-Aldrich, St. Louis, MO, USA). The chemiluminescence detection system was purchased from Bio-Rad (Hercules, CA, USA).
(In general: A western blot detects proteins with antibodies after separation by electrophoresis.)

Take “Platinum(1+), (2,9-dimethyl-1,10-phenanthroline- N1,N10)(η2-ethene)octyl[1,3-dihydro-1,3-dimethyl-4-[1-[2,3,4,6-tetrakis-O-(acetyl)-β-D-glucopyranosyl]-1H-1,2,3-triazol-4-yl]-2H-imidazol-2-ylidene], 1,1,1-trifluoromethanesulfonate [1-Oct,Me]”: the “Log Po/w” value in data set [1] stood at 1.14. Besides, the IC50 in data set [2] stood at 6.4 ± 1 µM; in data set [3], 2.3 ± 0.1 µM; in data set [4] it was 7.1 ± 0.1 µM; in data set [5], 8.6 ± 0.6 µM. Also, the “SI (selectivity index)” value in data set [3] stood at 2.78; in data set [5] it was 0.83. Also, in the data set with A431 cells [6], the Pt uptake worked out at 14.3 ± 1.3 Pt ng/10^6 cells. Also, the “pro-caspases 9 and 3 levels” value in the data set on A431 cells [7] is “significant decrease in pro-caspases 9 and 3 levels”.

Turning to “Platinum(1+), (2,9-dimethyl-1,10-phenanthroline- N1,N10)(η2-ethene)methyl[1,3-dihydro-1-methyl-3-octyl-4-[1-[2,3,4,6-tetrakis-O-(acetyl)-β-D-glucopyranosyl]-1H-1,2,3-triazol-4-yl]-2H-imidazol-2-ylidene], 1,1,1-trifluoromethanesulfonate [1-Me,Oct]”, the “Log Po/w” value in data set [1] turned out to be 0.74. Further, the IC50 in data set [2] amounted to 8 ± 0.1 µM; in data set [3] it was 7.3 ± 0.4 µM; in data set [4] it was 8.3 ± 0.4 µM; in data set [5] it was 7.6 ± 1.1 µM. Also, the “SI (selectivity index)” value stood at 1.1 in data set [3] and 1.09 in data set [5].

“Platinum(1+), (2,9-dimethyl-1,10-phenanthroline- N1,N10)(η2-ethene)octyl[1,3-dihydro-1-methyl-3-octyl-4-[1-[2,3,4,6-tetrakis-O-(acetyl)-β-D-glucopyranosyl]-1H-1,2,3-triazol-4-yl]-2H-imidazol-2-ylidene], 1,1,1-trifluoromethanesulfonate [1-Oct,Oct]”: the “Log Po/w” value in data set [1] was found to be 0.80. Also, the IC50 in data set [2] was determined as 6.4 ± 0.8 µM; in data set [3] it was 5 ± 0.6 µM; in data set [4], 7.3 ± 0.7 µM; in data set [5] it was 4.5 ± 1.3 µM. Also, the results for the “SI (selectivity index)” value in data set [3] and in data set [5] were 1.28 and 1.62, respectively.

These data come from article PMC9916762, “Impact of Hydrophobic Chains in Five-Coordinate Glucoconjugate Pt(II) Anticancer Agents” (International Journal of Molecular Sciences, 2023).
